Results on 3 compounds are retold here after publication PMC7845594, “Novel Immune Modulators Enhance Caenorhabditis elegans Resistance to Multiple Pathogens” (mSphere, 2021).

The subject of assay [1] is C. elegans exposed to P. aeruginosa strain PA14. Briefly: P. aeruginosa slow-killing assay (agar). The assay is classed as in vivo, Caenorhabditis elegans. The conditions noted are these: wild-type worms, 50 µM, Fig 8 (DMSO 58.9). The source says: The finding that each of the compounds activated PMK-1/p38 MAPK targets was of interest, as this pathway is associated with enhanced immunity against multiple bacterial pathogens in agar-based C. elegans assays. Therefore, we tested whether these compounds could promote survival in an agar-based, high-colonization pathogenesis model known as slow killing. Loss of PMK-1 activity substantially compromises survival in the slow-killing assay ([16], [47]). Wild-type, young adult worms were exposed to P. aeruginosa strain PA14 on agar plates impregnated with each of the five compounds. […] To see whether this depended upon the PMK-1 pathway, LK32, LK38, and LK56 were retested in worms where RNAi was used to knock down pmk-1/MAPK or atf-7/ATF7 (a key transcription factor whose activity is modulated by PMK-1 [63, 64]) (Fig. 9; see Table S2 in the supplemental material for TD50 and overall statistical significance).
FIG 8 Four LK molecules extend C. elegans life span in the slow-killing assay. […] The data shown are from a representative replicate. Each of the three biological replicates was comprised of three plates per condition, with each plate containing ∼60 worms. Statistical significance was calculated using a log-rank test. Worms that left the surface of the plate were excluded from analysis (see Table S2 in the supplemental material for TD50 and exact P values).
FIG 9 Rescue in slow killing by a subset of LK compounds depends upon the PMK-1/p38 MAPK pathway. Wild-type L4 worms were reared on RNAi targeting pmk-1/p38 MAPK, atf-7/ATF-7, or empty vector and placed onto slow-killing plates containing DMSO or LK32 (A and B), LK38 (C and D), or LK56 (E and F) at 50 µM. Starting at 24 h, worms were scored every 12 h for survival until all worms perished. Each of the three biological replicates was comprised of three plates, each plate contained approximately 50 to 70 worms. Statistical significance was calculated using log-rank test (see Table S2 in the supplemental material for TD50 and exact P values). For vector RNAi, DMSO versus compound, P < 0.001 for LK38, LK56, and LK32.
Supplementary file : FIG S5 NSY-1 and SEK-1, upstream members of the PMK-1/p38 MAPK pathway, are required for LK38-mediated rescue. Young adult wild-type, nsy-1/MAP3K15(ag3), or sek-1/MAP2K6(km-4) mutants were exposed to P. aeruginosa in the slow-killing assay in the presence of DMSO or LK38. Data for each condition at each time point represent the average value for three plates from one representative replicate (of three replicates total). Each plate contained ∼60 worms. P values were calculated using a log-rank test (see Table S2 in the supplemental material for the TD50 and exact P values). For wild-type DMSO versus LK38 P < 0.001. No statistically significant difference was measured between LK38 and DMSO for either mutant. Download FIG S5, PDF file, 0.1 MB.
Slow-killing (SK) plates were made as previously reported ([92]). Compounds were added to molten SK agar before pouring plates. After solidifying, 40 µl of PA14 overnight culture was spread on plates before incubating plates at 37°C for 24 h, followed by 25°C for 24 h. 5-fluoro-2′-deoxyuridine (FUDR) (0.1 mg/ml) was dropped on plates 30 min prior to picking worms, to ensure nematode sterility. Fifty to seventy L4-stage, wild-type worms were picked onto plates and scored every 12 h after the first 24 h, until all worms were dead. Three biological replicates were performed.

The subject of assay [2] is reactive oxygen species (ROS). The experiment in a line: DHE staining (ROS level). The conditions noted are these: 50 or 100 µM, 10 h, no pathogen. The assay is classed as in vivo, Caenorhabditis elegans. The text has this:
Previous work from our lab has established that the ESRE network plays an important role in the resistance of C. elegans to pyoverdine, the main virulence determinant in liquid killing, and recent evidence has shown that ESRE activation depends on increased reactive oxygen species (ROS) ([23], [38], [39]). To evaluate ESRE activation, worms carrying an hsp-16.1p::GFP reporter (which contains two ESRE motifs and was previously used as an indicator of ESRE activation [[39][–][41]]), were exposed to 50 or 100 μM LK35, LK38, LK56, juglone (positive control), or DMSO. […] ROS level was assessed based on the fluorescence of dihydroethidium (DHE; a ROS-specific dye) using a COPAS FlowSort for flow vermimetry.
Young adult wild-type (A), hsp-4p::GFP (B), hsp-16.1p::GFP (C), or rpt-3::GFP (D) worms were incubated with LK molecules at 50 or 100 µM, DMSO control, or positive controls. For panel A, the worms were treated with compound for 10 h, and then the worms were stained with 4 µM DHE for 1 h before washing and fluorescence measurement. For panels B to D, the worms were treated with compound for 15 h prior to fluorescence measurement. Mean values from at least three biological replicates are shown. *, P < 0.05; **, P < 0.01; ***, P < 0.001 (compared to the solvent control). P values were calculated using Student’s t test. Error bars represent the standard error of the mean. […]

Assay [3] concerns C. elegans host defense pathway genes. Briefly: nanoString expression of 115 immune- and stress-responsive genes. The conditions noted are these: 100 μM LK molecules, 16 h. How it is done: The ratio of MIC to EC was determined for each of the 69 compounds.
Analysis of the expression of 115 immune- and stress-responsive genes using nanoString technology. Download Table S1, XLSX file, 0.02 MB.
For nanoString-based (nanoString Technologies, Seattle, WA) experiments, 2,000 wild-type, young adult worms were exposed to 100 μM LK molecules or DMSO control in S Basal medium in 6-well plates for 16 h. RNA purification and gene expression analysis were performed according to nanoString guidelines. Two biological replicates were tested for each condition.

For the compound `Cc1ccc(Nc2nc(N)c3ccccc3n2)cc1Cl` [RPW-24, reference compound], in assay [1], the “TD50, slow killing” value worked out at 63.7 h.

As to `C=C(C)[C@H]1Cc2c(ccc3c2O[C@@H]2COc4cc(OC)c(OC)cc4[C@@H]2C3=O)O1` [rotenone], the “ROS level (DHE staining)” value in assay [2] is recorded as “significant increase in staining”.

For `Cc1cc(C2CCCCC2)n(O)c(=O)c1` [Ciclopirox, reference compound], in assay [3], the “B0024.4 expression, induction” value stood at 1.09 fold; the “C02B4.2 nhr-17 expression, induction” value turned out to be 5.80 fold; the “C06B3.7 expression, induction” value turned out to be 3.19 fold; the “C07G3.2 irg-1 expression, induction” value is given as 1.06 fold. Also, in assay [3], the “C12C8.1 hsp-70 expression, induction” value was 3.28 fold; the “C15F1.7 sod-1 expression, induction” value came to 2.15 fold; the “C29F7.2 expression, induction” value turned out to be 10.38 fold; the “C31A11.5 oac-6 expression, induction” value was determined as 5.76 fold. Further, in assay [3], the “C32D5.12 expression, induction” value is recorded as 1.22 fold; the “C32H11.1 expression, induction” value was 20.23 fold; the “C32H11.3 expression, induction” value was determined as 2.02 fold; the “C34G6.4 pgp-2 expression, induction” value is on record as 3.63 fold. Also, in assay [3], the “C37C3.10 expression, induction” value stood at 12.27 fold; the “C37H5.8 hsp-6 expression, induction” value turned out to be 4.01 fold; the “C49G7.5 irg-2 expression, induction” value is recorded as 3.65 fold; the “F08F8.5 numr-1 expression, induction” value is reported as 8.74 fold. Besides, in assay [3], the “F08H9.4 expression, induction” value came to 4.96 fold; the “F14F9.3 expression, induction” value turned out to be 1.98 fold; the “F22B5.4 expression, induction” value is listed as 2.49 fold; the “F22H10.2 expression, induction” value is listed as 2.82 fold. Besides, in assay [3], the “F26A3.4 expression, induction” value amounted to 2.35 fold; the “F35E8.11 cdr-1 expression, induction” value was 56.32 fold; the “F35G2.4 phy-2 expression, induction” value came out at 1.70 fold; the “F37B12.2 gcs-1 expression, induction” value worked out at 1.30 fold. For the same compound, in assay [3], the “F43E2.8 hsp-4 expression, induction” value is listed as 10.74 fold; the “F44E5.5 expression, induction” value worked out at 2.67 fold; the “F49F1.6 expression, induction” value was determined as 2.55 fold; the “F49F1.7 expression, induction” value is recorded as 15.81 fold. Also, in assay [3], the “F49H6.13 expression, induction” value is given as 2.90 fold; the “F54B8.4 expression, induction” value came to 6.33 fold; the “F55G11.2 expression, induction” value turned out to be 1.86 fold; the “F59A7.1 clec-206 expression, induction” value was found to be 11.44 fold. Also, in assay [3], the “F59B10.4 expression, induction” value was 1.20 fold; the “H12D21.1 nspa-1 expression, induction” value amounted to 3.83 fold; the “H23N18.1 ugt-13 expression, induction” value came out at 5.56 fold; the “H23N18.3 ugt-8 expression, induction” value came out at 108.33 fold. In addition, in assay [3], the “K05B2.4 expression, induction” value was 8.10 fold; the “K08F4.7 gst-4 expression, induction” value was found to be 2.79 fold; the “K09A9.1 nipi-3 expression, induction” value came out at 2.12 fold; the “K10D11.2 expression, induction” value was 2.25 fold. Further, in assay [3], the “K10G4.3 expression, induction” value is 2.60 fold; the “R03D7.6 gst-5 expression, induction” value came to 11.91 fold; the “R08H2.1 dhs-23 expression, induction” value came to 120.99 fold; the “R10E8.3 expression, induction” value came to 3.34 fold. Also, in assay [3], the “T19D12.3 expression, induction” value is 2.80 fold; the “T19H12.1 ugt-9 expression, induction” value is given as 6.34 fold; the “T21E8.1 pgp-6 expression, induction” value came out at 0.94 fold; the “T22B7.3 expression, induction” value is 2.18 fold. Besides, in assay [3], the “T24C4.4 expression, induction” value is listed as 1.62 fold; the “T24E12.5 expression, induction” value stood at 3.07 fold; the “T27E4.3 hsp-16.48 expression, induction” value came to 2.96 fold; the “T27E4.8 hsp-16.1 expression, induction” value came out at 2.80 fold. For the same compound, in assay [3], the “T27F6.8 expression, induction” value came to 4.80 fold; the “T28C12.4 expression, induction” value is on record as 13.23 fold; the “W02D9.10 expression, induction” value was 2.74 fold; the “Y22D7AL.5 hsp-60 expression, induction” value worked out at 2.19 fold. Further, in assay [3], the “Y38E10A.15 nspe-7 expression, induction” value is reported as 1.84 fold; the “Y46H3A.2 hsp-16.41 expression, induction” value came to 2.63 fold; the “Y46H3A.3 hsp-16.2 expression, induction” value turned out to be 2.71 fold; the “Y56A3A.33 expression, induction” value is 3.70 fold. Moreover, in assay [3], the “Y58A7A.5 expression, induction” value came out at 1.48 fold; the “ZC376.7 atfs-1 expression, induction” value is 3.27 fold; the “ZC443.6 ugt-16 expression, induction” value is listed as 52.72 fold; the “ZK697.6 gst-21 expression, induction” value came to 454.34 fold.
